According to patent US8399106B2, “Composition and method for treating wood” (Kemira OyJ, priority 2007, dated 2013):

How the values were obtained:
[1] = wood treated only with a chelating agent; as described in WO 0123154; cited from earlier work
[2] = tested on: Aureobasidium pullulans and Sclerophoma pithyophila (pooled suspension); settings: literature reference, 1.0% of NHA; cited from earlier work
rot fungi = test: Rot resistance / wood protection class (EN 350-1), fungus not specified; assay type: cell-based; settings: treated wood
Protocol: Rot testing was carried out according to the EN 113 standard. 10 test samples impregnated with respective agents for each of the three rot fungi were used in the test. A sample made of surface wood of pine was placed as a control with the impregnated test samples to the same container for the rot test. Activity of each fungus was tested with eight test samples (so-called infection test). Said test samples for the fungus activity testing were placed in respective containers for the rot test without impregnated test samples.
In the method, an X value was calculated for each impregnation batch and for each fungus, said X value describing the ratio of the mass loss of the impregnated test samples to that of the unimpregnated control samples. X value was calculated by dividing the corrected mass loss of the impregnated test samples by that of the unimpregnated control samples. The calculation was based on mean values. Based on the result obtained, the rot resistance class was determined as follows for the fungus with the highest rot activity:

In the case of `O=C(O)CN(CCN(CC(=O)O)CC(=O)O)CC(=O)O` [EDTA, ethylenediaminetetraacetic acid], the “amounts washed out of wood, in words” value [1] is given as “so high”.
For `O=C1c2cccc3cccc(c23)C(=O)N1O` [NHA, N,N-naphthaloylhydroxylamine], the “Microbial growth 0 to 5” value [2] is given as 4 (high amounts of microbial growth (more than 40% of the surface of the test sample covered by microbial growth)).
For `O=C[O-].O=C[O-].[Ca+2]` [calcium formate], the “wood protection class (rot protection standard EN 350-1, classes 1-5)” value (rot fungi) was 3 (Class 3=reasonably resistant 0.30<X≦0.60).
